Assays:
Elastin (ELN) gene = assay: Gene expression change by qPCR in EpiDerm-FT: ELN; type: cell-based, human; conditions: vs vehicle-treated tissues, GAPDH housekeeping
Description: (§1) The purpose of this study was to evaluate the hyaluronic acid (HA) expression change activity of RoC® HA Serum Capsules (i.e. Example 2.0), RoC® Retinol Serum Capsules (i.e. Example 1.0), commercially available HA Serum (1.5 wt. % HA) and commercially available Retinol Serum (0.3 wt. % retinol) compared to 0.15% Retinol-treated tissues in cultured human epidermal/dermal skin tissues (EpiDerm-FT™). HA levels from culture medium, tissue lysates, HA histology and gene expression related to dermal anti-aging effects were quantified using qPCR method after 24- and 72-hours incubation with test materials.

[1] = tested on: cultured human epidermal/dermal skin tissues (EpiDerm-FT); assay: Hyaluronic acid levels by HA ELISA in culture medium and tissue lysates of EpiDerm-FT; type: cell-based; conditions: vs vehicle-treated tissues
Description: as §1

[2] = tested on: cultured human epidermal/dermal skin tissues (EpiDerm-FT); assay: Alcian Blue histology of dermal layer, image analysis, EpiDerm-FT; type: cell-based; conditions: vs vehicle-only treated tissues
Description: as §1
After incubations, tissues were fixed and subjected to the normal steps of tissue preparation for histological analysis: dehydration, paraffin embedding, sectioning and staining with Alcian Blue. Histological activity was analyzed using image analysis including blue-color deconvolution and luminosity per section area in dermal layer. The percent change effect of each treatment was calculated comparing the vehicle-only treated tissues group.

[3] = tested on: Hyaluronic acid synthase-1 (HAS1) gene; assay: Gene expression change by qPCR in EpiDerm-FT: HAS1; type: cell-based, human; conditions: vs vehicle-treated tissues, GAPDH housekeeping
Description: as §1

Fibronectin (FN1) gene = assay: Gene expression change by qPCR in EpiDerm-FT: FN1; type: cell-based, human; conditions: vs vehicle-treated tissues, GAPDH housekeeping
Description: as §1

[4] = tested on: Collagen type-I (COL1A1) gene; assay: Gene expression change by qPCR in EpiDerm-FT: COL1A1; type: cell-based, human; conditions: vs vehicle-treated tissues, GAPDH housekeeping
Description: as §1

[5] = tested on: Hyaluronic acid synthase-2 (HAS2) gene; assay: Gene expression change by qPCR in EpiDerm-FT: HAS2; type: cell-based, human; conditions: vs vehicle-treated tissues, GAPDH housekeeping
Description: as §1

[6] = tested on: Collagen type-IV (COL4A1) gene; assay: Gene expression change by qPCR in EpiDerm-FT: COL4A1; type: cell-based, human; conditions: vs vehicle-treated tissues, GAPDH housekeeping
Description: as §1

[7] = tested on: Collagen type-III (COL3A1) gene; assay: Gene expression change by qPCR in EpiDerm-FT: COL3A1; type: cell-based, human; conditions: vs vehicle-treated tissues, GAPDH housekeeping
Description: as §1

[8] = 24 hr, n = 3, listed as 0.15% Retinol formulated in DMSO

With `CC1=C(/C=C/C(C)=C/C=C/C(C)=C/CO)C(C)(C)CCC1` [0.15% Retinol in DMSO, Retinol] the “Gene Expression change, ELN” value (Elastin (ELN) gene; 24 hr) was −21%, the “Gene Expression change, ELN” value (Elastin (ELN) gene; 72 hr) was “+25%” and the “Hyaluronic Acid (HA) levels change, Culture medium” value ([1]; 24 hr, n = 3) was “+34%”. For the same molecule, the “Hyaluronic Acid (HA) levels change, Tissue lysates” value ([1]; 24 hr, n = 3) was “+52%”, the “Hyaluronic Acid (HA) levels change, Culture medium” value [1, 8] was 34% and the “Hyaluronic Acid (HA) levels change, Tissue lysates” value [1, 8] was 52%. For the same molecule, the “Hyaluronic Acid (HA) levels change, Culture medium” value ([1]; 72 hr, n = 3) was “+25%”, the “Hyaluronic Acid (HA) levels change, Tissue lysates” value ([1]; 72 hr, n = 3) was “+49%” and the “Histology, Alcian Blue in Dermis staining change” value ([2]; 24 hr) was “+81%”. For the same molecule, the “Histology, Alcian Blue in Dermis staining change” value ([2]; 72 hr) was −9%, the “Gene Expression change, HAS1” value ([3]; 24 hr) was −52% and the “Gene Expression change, HAS1” value ([3]; 72 hr) was −29%. For the same molecule, the “Gene Expression change, FN1” value (Fibronectin (FN1) gene; 24 hr) was −16%, the “Gene Expression change, FN1” value (Fibronectin (FN1) gene; 72 hr) was “+45%” and the “Gene Expression change, FN1” value (Fibronectin (FN1) gene; 72 hr, listed as 0.15% Retinol formulated in DMSO) was 45%. For the same molecule, the “Gene Expression change, COL1A1” value ([4]; 24 hr) was −22%, the “Gene Expression change, COL1A1” value ([4]; 72 hr) was “+18%” and the “Gene Expression change, HAS2” value ([5]; 24 hr) was −11%. The “Gene Expression change, HAS2” value ([5]; 72 hr) was −18%, the “Gene Expression change, COL4A1” value ([6]; 24 hr) was −30% and the “Gene Expression change, COL4A1” value ([6]; 72 hr) was “+9%”. The “Gene Expression change, COL3A1” value ([7]; 24 hr) was −22% and the “Gene Expression change, COL3A1” value ([7]; 72 hr) was “+8%”.
